Like-named read-outs stand apart in the source and are kept apart here. Starred links: 1 amine or outer side, 2 acyl side, 3 side chain; linkers in the order of their positions; H or OH if unused. Positions of bridges follow the written chain, without caps; N, C: chain ends. Non-standard residues stand in square brackets, D forms with d. Residues, ends and D or L forms follow the SMILES beside them. *: point of attachment. Ala(2-furyl) = N[C@@H](Cc1ccco1)C(=O)O; X2 = CONC(=O)CC[C@H](N[*:1])C(=O)[*:2]; Orn(iPr) = CC(C)NCCC[C@H](N)C(=O)O; X1 = CCNCCC[C@H](N[*:1])C(=O)[*:2]; Orn(Pr) = CCCNCCC[C@H](N)C(=O)O; 2Thi = N[C@@H](Cc1cccs1)C(=O)O; Aad = N[C@@H](CCCC(=O)O)C(=O)O; NH(3-hydroxypropyl) = OCCCN*; Orn = NCCC[C@H](N)C(=O)O; Dab = NCC[C@H](N)C(=O)O
Experiments:
[1] = molecular target: T1, human oxytocin (hOT) receptor (Homo sapiens, UniProt P30559); assay: luciferase-based transcriptional reporter assay, selectivity hOT versus hV1a; assay type: cell-based
T1 construct: expressed in transfected cells
T1 sequence (P30559 1-389): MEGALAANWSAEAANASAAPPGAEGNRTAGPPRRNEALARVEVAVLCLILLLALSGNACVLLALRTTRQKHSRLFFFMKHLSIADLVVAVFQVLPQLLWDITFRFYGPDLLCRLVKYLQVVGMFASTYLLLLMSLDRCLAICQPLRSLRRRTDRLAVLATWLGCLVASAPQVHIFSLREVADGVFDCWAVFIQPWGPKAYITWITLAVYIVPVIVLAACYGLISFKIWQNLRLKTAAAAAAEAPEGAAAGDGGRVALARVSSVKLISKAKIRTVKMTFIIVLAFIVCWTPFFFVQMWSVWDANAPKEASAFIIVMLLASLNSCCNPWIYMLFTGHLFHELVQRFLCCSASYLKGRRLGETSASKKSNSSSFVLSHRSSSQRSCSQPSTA
Procedure: (§1) Agonist activity of compounds on the hV1a receptor was determined in a transcriptional reporter assay by transiently transfecting a hV1a receptor expression DNA into HEK-293 cells in concert with a reporter DNA containing intracellular calcium responsive promoter elements regulating expression of firefly luciferase. See Boss, V., Talpade, D. J., Murphy, T. J. J. Biol. Chem. 1996, May 3; 271(18), 10429-10432 for further guidance on this assay. […] To determine selectivity, compounds were tested in luciferase-based transcriptional reporter assays expressing the human oxytocin (hOT) receptor. Assays for other receptors (hV2, hV1b, rat V1a and rat V2) were also conducted.
(§2) The EC50 value given is the geometric mean expressed in nanomol/L (nM). Selectivity values are given as EC50 ratios.

hV1a receptor = molecular target: T2, hV1a receptor (Homo sapiens, UniProt P37288); assay: hV1a receptor transcriptional reporter (luciferase) agonist assay; assay type: cell-based
T2 construct: expressed in transfected cells; host or cells: HEK-293
T2 sequence (P37288 whole entry): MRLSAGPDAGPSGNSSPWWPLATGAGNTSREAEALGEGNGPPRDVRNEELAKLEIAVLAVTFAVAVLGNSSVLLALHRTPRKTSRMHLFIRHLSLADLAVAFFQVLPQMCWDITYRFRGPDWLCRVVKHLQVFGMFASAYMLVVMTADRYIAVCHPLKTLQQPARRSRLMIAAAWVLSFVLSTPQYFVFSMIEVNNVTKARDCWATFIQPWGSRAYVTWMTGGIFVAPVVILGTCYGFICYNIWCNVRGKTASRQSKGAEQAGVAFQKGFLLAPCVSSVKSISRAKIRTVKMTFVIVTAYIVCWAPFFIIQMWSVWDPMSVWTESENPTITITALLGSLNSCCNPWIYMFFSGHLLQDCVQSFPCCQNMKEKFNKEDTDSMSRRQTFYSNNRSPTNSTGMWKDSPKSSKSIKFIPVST
Procedure: as §1, §2

[2] = tested on: anaesthetised Sprague-Dawley male rats; assay: in vivo duration of action, blood pressure test in anaesthetised rats; set-up: species or system rat; conditions: ratio of decay rate of diastolic blood pressure response, AVP 0.1 nmol/kg i.v. to equieffective dose of compound; dibenamine-pretreated rats
Procedure: Blood pressure tests were carried out on anaesthetised Sprague-Dawley male rats (weighing 270-300 g) with catheterised jugular vein and carotid artery. The catheterised carotid artery was used to continuously monitor blood pressure and the jugular vein was used for administration of the compounds tested. Rats received intravenous injections of dibenamine prior to dosing to enhance their responsiveness to V1a receptor agonists (cf. Dekanski, J., Br. J. Pharmacol. 1952, 7, 567-572). […] Dosing intervals were set as time for the blood pressure to decrease to a stable baseline.
Determination of duration of action was based on the decay rate of diastolic arterial blood pressure transient increase. Specifically, for an exponential decay of plasma concentration, it can be shown that, if the response is measured beyond the distribution phase, the rate of decay near the EC50 is linear and inversely proportional to the elimination half-life (Rowland, M. and Tozer, T. in “Clinical Pharmacokinetics, Concepts and Applications”, 3rd ed., Lippincott Williams & Wilkins, Philadelphia, 1995).

[3] = HEK-293 cells transiently transfected with hV1a receptor, 5 hours exposure, geometric mean, read-out: EC50 hV1a receptor
[4] = class symbol, agonist efficacy at hOT receptor compared to AVP

| SMILES | selectivity hOT/hV1a ([1]; EC50 ratio) | EC50 (hV1a receptor; [3]) [nM] | in vivo duration relative to AVP [2] | selectivity hOT/hV1a [1] | EC50 (hV1a receptor) [nM] | selectivity hOT/hV1a [1, 4] |
| --- | --- | --- | --- | --- | --- | --- |
| CCCNCCC[C@H](NC(=O)[C@@H]1CCCN1C(=O)[C@@H]1CSSC[C@H](N)C(=O)N[C@@H](Cc2ccccc2)C(=O)N[C@@H]([C@@H](C)CC)C(=O)N[C@@H](CC(N)=O)C(=O)N[C@@H](CC(N)=O)C(=O)N1)C(=O)NCC(N)=O [Compound 50] (H-CFINNCP[Orn(Pr)]G-NH2; disulfide 1-6; N-terminus and C-terminus assumed) | 43 | 1.52 | 2.4 |  |  |  |
| CC[C@H](C)[C@@H]1NC(=O)[C@H](Cc2ccccc2)NC(=O)[C@@H](N)CSSC[C@@H](C(=O)N2CCC[C@H]2C(=O)N[C@@H](CCCN)C(=O)NCC(N)=O)NC(=O)[C@H](CC(N)=O)NC(=O)[C@H](CCC(=O)NOC)NC1=O [Compound 10] (H-CFI[X2]NCP[Orn]G-NH2; disulfide 1-6; N-terminus and C-terminus assumed) | 11 | 1.15 | 2.3 |  |  |  |
| CC[C@H](C)[C@@H]1NC(=O)[C@H](Cc2ccco2)NC(=O)[C@@H](N)CSSC[C@@H](C(=O)N2CCC[C@H]2C(=O)N[C@@H](CCCN)C(=O)NCC(N)=O)NC(=O)[C@H](CC(N)=O)NC(=O)[C@H](CCC(N)=O)NC1=O [Compound 25] (H-C[Ala(2-furyl)]IQNCP[Orn]G-NH2; disulfide 1-6) |  |  | 2.0 | 23 | 1.4 |  |
| CCNC(=O)C[C@@H]1NC(=O)[C@H]([C@@H](C)CC)NC(=O)[C@H](Cc2ccccc2)NC(=O)[C@@H](N)CSSC[C@@H](C(=O)N2CCC[C@H]2C(=O)N[C@@H](CCN)C(=O)NCC(N)=O)NC(=O)[C@H](CC(N)=O)NC1=O [Compound 4, [Phe^2,Asn(Et)^4, Dbu^8]VT] (H-CFID(NHEt)NCP[Dab]G-NH2; disulfide 1-6; N-terminus and C-terminus assumed) |  |  | 1.8 |  |  | + (selective hV1a receptor agonist; EC50 hOT/hV1a ratio not determined due to very low agonist efficacy (<30% compared to AVP) at the hOT receptor) |
| CCNCCC[C@H](NC(=O)[C@@H]1CCCN1C(=O)[C@@H]1CSSC[C@H](N)C(=O)N[C@@H](Cc2ccccc2)C(=O)N[C@@H]([C@@H](C)CC)C(=O)N[C@@H](CCC(N)=O)C(=O)N[C@@H](CC(N)=O)C(=O)N1)C(=O)NCC(N)=O [Compound 6] (H-CFIQNCP[X1]G-NH2; disulfide 1-6; N-terminus and C-terminus assumed) | 86 |  | 1.9 |  | 0.29 |  |
| CC[C@H](C)[C@@H]1NC(=O)[C@H](Cc2ccccc2)NC(=O)[C@@H](N)CSSC[C@@H](C(=O)N2CCC[C@H]2C(=O)N[C@@H](CCCNC(C)C)C(=O)NCC(N)=O)NC(=O)[C@H](CC(N)=O)NC(=O)[C@H](CCC(N)=O)NC1=O [Compound 5] (H-CFIQNCP[Orn(iPr)]G-NH2; disulfide 1-6; N-terminus and C-terminus assumed) | 117 |  | 1.9 |  | 0.25 |  |
| CC[C@H](C)[C@@H]1NC(=O)[C@H](Cc2cccs2)NC(=O)[C@@H](N)CSSC[C@@H](C(=O)N2CCC[C@H]2C(=O)N[C@@H](CCCNC(C)C)C(=O)NCC(N)=O)NC(=O)[C@H](CC(N)=O)NC(=O)[C@H](CCC(N)=O)NC1=O [Compound 34] (H-C[2Thi]IQNCP[Orn(iPr)]G-NH2; disulfide 1-6) |  |  | 2.0 | 72 | 0.73 |  |
| NCCCC[C@H](NC(=O)[C@@H]1CCCN1C(=O)[C@@H]1CSSC[C@H](NC(=O)CNC(=O)CNC(=O)CN)C(=O)N[C@@H](Cc2ccc(O)cc2)C(=O)N[C@@H](Cc2ccccc2)C(=O)N[C@@H](CCC(N)=O)C(=O)N[C@@H](CC(N)=O)C(=O)N1)C(=O)NCC(N)=O [terlipressin, reference compound] (H-GGGCYFQNCPKG-NH2; disulfide 4-9) |  |  | 9.1 |  | 82.1 | + (selective hV1a receptor agonist; EC50 hOT/hV1a ratio not determined due to very low agonist efficacy (<30% compared to AVP) at the hOT receptor) |
| CC[C@H](C)[C@@H]1NC(=O)[C@H](Cc2ccccc2)NC(=O)[C@@H](N)CSSC[C@@H](C(=O)N2CCC[C@H]2C(=O)N[C@@H](CCN)C(=O)NCC(N)=O)NC(=O)[C@H](CC(N)=O)NC(=O)[C@H](CC(N)=O)NC1=O [Compound 3] (H-CFINNCP[Dab]G-NH2; disulfide 1-6) |  |  | 1.7 | + (key: +: selective hV1a receptor agonist; EC50 hOT/hV1a ratio not determined due to very low agonist efficacy (<30% compared to AVP) at the hOT receptor) | 1.47 |  |
| CC[C@H](C)[C@@H]1NC(=O)[C@H](Cc2ccccc2)NC(=O)[C@@H](N)CSSC[C@@H](C(=O)N2CCC[C@H]2C(=O)N[C@@H](CCCN)C(=O)NCC(N)=O)NC(=O)[C@H](CC(N)=O)NC(=O)[C@H](CC(=O)NCCCO)NC1=O [Compound 2] (H-CFID(NH(3-hydroxypropyl))NCP[Orn]G-NH2; disulfide 1-6) |  |  | 1.7 | + (key: +: selective hV1a receptor agonist; EC50 hOT/hV1a ratio not determined due to very low agonist efficacy (<30% compared to AVP) at the hOT receptor) | 1.18 |  |
| CC[C@H](C)[C@@H]1NC(=O)[C@H](Cc2ccccc2)NC(=O)[C@@H](N)CSSC[C@@H](C(=O)N2CCC[C@H]2C(=O)N[C@@H](CCCN)C(=O)NCC(N)=O)NC(=O)[C@H](CC(N)=O)NC(=O)[C@H](CCC(=O)NC)NC1=O [Compound 19] (H-CFIE(NHMe)NCP[Orn]G-NH2; disulfide 1-6) |  | 5.99 | 1.6 |  |  | + (selective hV1a receptor agonist; EC50 hOT/hV1a ratio not determined due to very low agonist efficacy (<30% compared to AVP) at the hOT receptor) |
| CC[C@H](C)[C@@H]1NC(=O)[C@H](Cc2ccccc2)NC(=O)[C@@H](N)CSSC[C@@H](C(=O)N2CCC[C@H]2C(=O)N[C@@H](CCN)C(=O)NCC(N)=O)NC(=O)[C@H](CC(N)=O)NC(=O)[C@H](CCCC(N)=O)NC1=O [Compound 11] (H-CFI[Aad](NH2)NCP[Dab]G-NH2; disulfide 1-6) |  |  | 1.9 | + (key: +: selective hV1a receptor agonist; EC50 hOT/hV1a ratio not determined due to very low agonist efficacy (<30% compared to AVP) at the hOT receptor) | 2.96 |  |
| CC[C@H](C)[C@@H]1NC(=O)[C@H](Cc2ccccc2)NC(=O)[C@@H](N)CSSC[C@@H](C(=O)N2CCC[C@H]2C(=O)N[C@@H](CCCNC(C)C)C(=O)NCC(N)=O)NC(=O)[C@H](CC(N)=O)NC(=O)[C@H](CCCC(N)=O)NC1=O [Compound 1, [Phe^2,Hgn^4,Orn(i-Pr)^8]VT] (H-CFI[Aad](NH2)NCP[Orn(iPr)]G-NH2; disulfide 1-6; N-terminus and C-terminus assumed) |  |  | 1.7 |  |  | + (selective hV1a receptor agonist; EC50 hOT/hV1a ratio not determined due to very low agonist efficacy (<30% compared to AVP) at the hOT receptor) |
| CC[C@H](C)[C@@H]1NC(=O)[C@H](Cc2ccccc2)NC(=O)[C@@H](N)CSSC[C@@H](C(=O)N2CCC[C@H]2C(=O)N[C@@H](CCCNC(C)C)C(=O)NCC(N)=O)NC(=O)[C@H](CC(N)=O)NC(=O)[C@H](CC(N)=O)NC1=O [Compound 41] (H-CFINNCP[Orn(iPr)]G-NH2; disulfide 1-6) |  |  | 2.6 | 53 | 0.98 |  |
| CC[C@H](C)[C@@H]1NC(=O)[C@H](Cc2ccccc2)NC(=O)[C@@H](N)CSSC[C@@H](C(=O)N2CCC[C@H]2C(=O)N[C@@H](CCCN)C(=O)NCC(N)=O)NC(=O)[C@H](CC(N)=O)NC(=O)[C@H](CCCC(N)=O)NC1=O [Compound 9] (H-CFI[Aad](NH2)NCP[Orn]G-NH2; disulfide 1-6) |  |  | 1.5 | + (key: +: selective hV1a receptor agonist; EC50 hOT/hV1a ratio not determined due to very low agonist efficacy (<30% compared to AVP) at the hOT receptor) | 0.68 |  |
